Source: US8106055B2, “Substituted amide compounds” (Gruenenthal GmbH, priority 2007, dated 2012)

Columns and labels:
human μ opiate receptor = target: T1, human μ opiate receptor (Homo sapiens, UniProt P35372); assay: Affinity for the human μ opiate receptor ([3H]-naloxone displacement, CHO-K1 receptor membrane preparation, SPA); format: binding; conditions: test concentration of 1 μM
T1 construct: purchased PerkinElmer Life Sciences, Zaventem, Belgium RB-HOM; host or cells: CHO-K1 cells (membrane preparation)
T1 sequence (P35372 whole entry): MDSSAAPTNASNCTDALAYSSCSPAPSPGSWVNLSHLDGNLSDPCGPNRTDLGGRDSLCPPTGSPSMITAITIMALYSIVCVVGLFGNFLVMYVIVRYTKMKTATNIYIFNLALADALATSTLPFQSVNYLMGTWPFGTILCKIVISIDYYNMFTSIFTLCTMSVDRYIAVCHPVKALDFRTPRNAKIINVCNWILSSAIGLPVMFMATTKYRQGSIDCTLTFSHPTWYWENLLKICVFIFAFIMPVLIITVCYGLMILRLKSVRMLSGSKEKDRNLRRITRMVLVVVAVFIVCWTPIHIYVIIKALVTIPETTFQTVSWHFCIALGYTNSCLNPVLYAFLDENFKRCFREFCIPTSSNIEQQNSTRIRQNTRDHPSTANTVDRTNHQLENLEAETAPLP
Procedure, shortened: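 CHO-K1 membranes expressing human μ receptor incubated 90 min at room temperature with 1 nmol/l [3H]-naloxone and WGA-SPA beads in 50 mmol/l Tris-HCl, 0.06% BSA; 100 μmol/l naloxone defines non-specific binding. Values are % inhibition of specific binding at 1 μM; IC50 converted to Ki by Cheng-Prusoff.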

[1] = target: T2, serotonin (5-HT) reuptake (Rattus norvegicus, UniProt P31652); assay: Inhibition of serotonin (5HT) reuptake in synaptosomes from rat brain; format: biochemical; conditions: test concentration of 10 μM
T2 construct: synaptosomes are freshly isolated from areas of the rat brain; from tissue; host or cells: rat brain synaptosomes (P2 fraction)
T2 sequence (P31652 whole entry): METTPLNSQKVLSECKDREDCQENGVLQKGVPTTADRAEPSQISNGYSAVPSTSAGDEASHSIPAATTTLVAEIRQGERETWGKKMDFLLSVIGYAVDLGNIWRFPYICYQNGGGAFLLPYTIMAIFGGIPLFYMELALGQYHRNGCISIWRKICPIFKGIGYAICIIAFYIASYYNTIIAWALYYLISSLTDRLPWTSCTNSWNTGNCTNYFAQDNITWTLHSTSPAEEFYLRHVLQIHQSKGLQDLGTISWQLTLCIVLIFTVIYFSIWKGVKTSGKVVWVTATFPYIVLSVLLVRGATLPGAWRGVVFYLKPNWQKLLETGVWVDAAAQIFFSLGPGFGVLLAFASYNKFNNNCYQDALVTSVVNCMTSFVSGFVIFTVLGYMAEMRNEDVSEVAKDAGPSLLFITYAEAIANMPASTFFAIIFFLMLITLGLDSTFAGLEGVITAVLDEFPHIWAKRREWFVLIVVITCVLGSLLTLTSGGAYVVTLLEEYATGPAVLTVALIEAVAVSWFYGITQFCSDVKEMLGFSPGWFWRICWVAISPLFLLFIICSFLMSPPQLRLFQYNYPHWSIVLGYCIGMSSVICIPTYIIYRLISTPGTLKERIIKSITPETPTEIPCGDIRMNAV
Procedure, shortened: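 Freshly isolated rat brain synaptosomes (P2 fraction) used for 5-HT reuptake. Test compound at 10 μM, activity given as % inhibition.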

COc1cc(C)c(S(=O)(=O)N2CCC(OCC(=O)NCC3CCC(C(c4cccc(F)c4)N(C)C)CC3)CC2)c(C)c1C (centres unmarked) [Example 287]
μ (binding on the μ opioid receptor, % inhibition) (human μ opiate receptor): 71%
5-HT (inhibition of reuptake of serotonin, % inhibition) [1]: 96%

COc1ccc(S(=O)(=O)N(C)CCOCC(=O)NCCC2CCC(C(c3cccc(F)c3)N(C)C)CC2)cc1 (centres unmarked) [Example 292]
μ (binding on the μ opioid receptor, % inhibition) (human μ opiate receptor): 74%
5-HT (inhibition of reuptake of serotonin, % inhibition) [1]: 83%

COc1ccc(S(=O)(=O)N(C)CCOCC(=O)NCCC2CCC(C(c3cccc(F)c3)N(C)C)CC2)cc1OC (centres unmarked) [Example 293]
μ (binding on the μ opioid receptor, % inhibition) (human μ opiate receptor): 75%
5-HT (inhibition of reuptake of serotonin, % inhibition) [1]: 95%

COc1ccc(S(=O)(=O)N2CCCCC2COCC(=O)NCCC2CCC(C(c3ccc(Cl)cc3)N(C)C)CC2)cc1 (centres unmarked) [Example 311]
μ (binding on the μ opioid receptor, % inhibition) (human μ opiate receptor): 67%
5-HT (inhibition of reuptake of serotonin, % inhibition) [1]: 95%

COc1cc(C)c(S(=O)(=O)N2CCC(OCC(=O)NC3CCC(C(c4cccc(F)c4)N(C)C)CC3)CC2)c(C)c1C (centres unmarked) [Example 286]
μ (binding on the μ opioid receptor, % inhibition) (human μ opiate receptor): 76%
5-HT (inhibition of reuptake of serotonin, % inhibition) [1]: 92%

CCN(CCOCC(=O)NCC1CCC(C(c2ccc(Cl)cc2)N(C)C)CC1)S(=O)(=O)c1c(C)cc(OC)c(C)c1C (centres unmarked) [Example 310]
μ (binding on the μ opioid receptor, % inhibition) (human μ opiate receptor): 61%
5-HT (inhibition of reuptake of serotonin, % inhibition) [1]: 83%

CN(C)C(c1cccc(F)c1)C1CCC(NC(=O)COCCN(C)S(=O)(=O)c2cccc(C(F)(F)F)c2)CC1 (centres unmarked) [Example 297]
μ (binding on the μ opioid receptor, % inhibition) (human μ opiate receptor): 74%
5-HT (inhibition of reuptake of serotonin, % inhibition) [1]: 86%

Cc1ccc(S(=O)(=O)N(C)CCOCC(=O)NCCC2CCC(C(c3ccc(Cl)cc3)N(C)C)CC2)cc1 (centres unmarked) [Example 306]
μ (binding on the μ opioid receptor, % inhibition) (human μ opiate receptor): 60%
5-HT (inhibition of reuptake of serotonin, % inhibition) [1]: 91%

CN(C)C(c1ccc(Cl)cc1)C1CCC(CCNC(=O)COCCN(C)S(=O)(=O)c2cccc(C(F)(F)F)c2)CC1 (centres unmarked) [Example 289]
μ (binding on the μ opioid receptor, % inhibition) (human μ opiate receptor): 67%
5-HT (inhibition of reuptake of serotonin, % inhibition) [1]: 94%

CN(C)C(c1cccc(F)c1)C1CCC(CCNC(=O)COCC2CCCN(S(=O)(=O)c3ccccc3)C2)CC1 (centres unmarked) [Example 295]
μ (binding on the μ opioid receptor, % inhibition) (human μ opiate receptor): 71%
5-HT (inhibition of reuptake of serotonin, % inhibition) [1]: 99%

CN(C)C(c1ccc(Cl)cc1)C1CCC(CNC(=O)COC2CCCN(S(=O)(=O)c3ccccc3)C2)CC1 (centres unmarked) [Example 301]
μ (binding on the μ opioid receptor, % inhibition) (human μ opiate receptor): 69%
5-HT (inhibition of reuptake of serotonin, % inhibition) [1]: 92%

COc1cc(C)c(S(=O)(=O)N(CCOCC(=O)NCCC2CCC(C(c3cccc(F)c3)N(C)C)CC2)Cc2ccccc2)c(C)c1 (centres unmarked) [Example 358]
μ (binding on the μ opioid receptor, % inhibition) (human μ opiate receptor): 71%
5-HT (inhibition of reuptake of serotonin, % inhibition) [1]: 92%

CN(C)C(c1ccc(F)cc1)C1CCC(NC(=O)COC2CCN(S(=O)(=O)c3ccc(Cl)cc3Cl)C2)CC1 (centres unmarked) [Example 290]
μ (binding on the μ opioid receptor, % inhibition) (human μ opiate receptor): 67%
5-HT (inhibition of reuptake of serotonin, % inhibition) [1]: 89%

CN(C)C(c1cccc(F)c1)C1CCC(CNC(=O)COCCN(C)S(=O)(=O)c2cccc(C(F)(F)F)c2)CC1 (centres unmarked) [Example 302]
μ (binding on the μ opioid receptor, % inhibition) (human μ opiate receptor): 75%
5-HT (inhibition of reuptake of serotonin, % inhibition) [1]: 92%

CN(C)C(c1ccc(Cl)cc1)C1CCC(CNC(=O)COCCN(C)S(=O)(=O)c2cccc(C(F)(F)F)c2)CC1 (centres unmarked) [Example 314]
μ (binding on the μ opioid receptor, % inhibition) (human μ opiate receptor): 64%
5-HT (inhibition of reuptake of serotonin, % inhibition) [1]: 93%

CN(C)C(c1cccc(F)c1)C1CCC(NC(=O)COC2CCN(S(=O)(=O)c3ccc(Cl)cc3Cl)C2)CC1 (centres unmarked) [Example 283]
μ (binding on the μ opioid receptor, % inhibition) (human μ opiate receptor): 74%
5-HT (inhibition of reuptake of serotonin, % inhibition) [1]: 91%

Cc1cc(C)c(S(=O)(=O)N2CCC(OCC(=O)NC3CCC(C(c4ccc(F)cc4)N(C)C)CC3)C2)c(C)c1 (centres unmarked) [Example 332]
μ (binding on the μ opioid receptor, % inhibition) (human μ opiate receptor): 58%
5-HT (inhibition of reuptake of serotonin, % inhibition) [1]: 88%

CN(C)C(c1ccc(F)cc1)C1CCC(NC(=O)COC2CCN(S(=O)(=O)c3cccc(C(F)(F)F)c3)C2)CC1 (centres unmarked) [Example 330]
μ (binding on the μ opioid receptor, % inhibition) (human μ opiate receptor): 54%
5-HT (inhibition of reuptake of serotonin, % inhibition) [1]: 90%

CN(C)C(c1ccc(Cl)cc1)C1CCC(CCNC(=O)COCCN(C)S(=O)(=O)c2ccc(Cl)cc2)CC1 (centres unmarked) [Example 347]
μ (binding on the μ opioid receptor, % inhibition) (human μ opiate receptor): 63%
5-HT (inhibition of reuptake of serotonin, % inhibition) [1]: 93%

CN(C)C(c1ccc(F)cc1)C1CCC(NC(=O)COCCN(C)S(=O)(=O)c2ccc(F)cc2)CC1 (centres unmarked) [Example 357]
μ (binding on the μ opioid receptor, % inhibition) (human μ opiate receptor): 57%
5-HT (inhibition of reuptake of serotonin, % inhibition) [1]: 86%

COc1ccc(S(=O)(=O)N(C)CCOCC(=O)NCC2CCC(C(c3ccc(Cl)cc3)N(C)C)CC2)cc1 (centres unmarked) [Example 324]
μ (binding on the μ opioid receptor, % inhibition) (human μ opiate receptor): 62%
5-HT (inhibition of reuptake of serotonin, % inhibition) [1]: 83%

CN(C)C(c1ccc(Cl)cc1)C1CCC(CNC(=O)COCC2CCCN(S(=O)(=O)c3ccccc3)C2)CC1 (centres unmarked) [Example 294]
μ (binding on the μ opioid receptor, % inhibition) (human μ opiate receptor): 63%
5-HT (inhibition of reuptake of serotonin, % inhibition) [1]: 88%

CN(C)C(c1ccc(Cl)cc1)C1CCC(CNC(=O)COCCN(C)S(=O)(=O)c2c(Cl)cc(Cl)cc2Cl)CC1 (centres unmarked) [Example 318]
μ (binding on the μ opioid receptor, % inhibition) (human μ opiate receptor): 65%
5-HT (inhibition of reuptake of serotonin, % inhibition) [1]: 91%

CN(C)C(c1ccc(F)cc1)C1CCC(CNC(=O)COCCN(C)S(=O)(=O)c2c(Cl)cccc2Cl)CC1 (centres unmarked) [Example 334]
μ (binding on the μ opioid receptor, % inhibition) (human μ opiate receptor): 66%
5-HT (inhibition of reuptake of serotonin, % inhibition) [1]: 83%

COc1cc(C)c(S(=O)(=O)N(C)CCOCC(=O)NCCC2CCC(C(c3ccc(F)cc3)N(C)C)CC2)c(C)c1C (centres unmarked) [Example 354]
μ (binding on the μ opioid receptor, % inhibition) (human μ opiate receptor): 61%
5-HT (inhibition of reuptake of serotonin, % inhibition) [1]: 90%

CN(C)C(c1cccc(F)c1)C1CCC(CNC(=O)COCCN2CCN(S(=O)(=O)c3ccccc3)CC2)CC1 (centres unmarked) [Example 308]
μ (binding on the μ opioid receptor, % inhibition) (human μ opiate receptor): 60%
5-HT (inhibition of reuptake of serotonin, % inhibition) [1]: 93%

COc1ccc(S(=O)(=O)N2CCCCC2CCOCC(=O)NCC2CCC(C(c3ccc(Cl)cc3)N(C)C)CC2)cc1 (centres unmarked) [Example 312]
μ (binding on the μ opioid receptor, % inhibition) (human μ opiate receptor): 61%
5-HT (inhibition of reuptake of serotonin, % inhibition) [1]: 89%

COc1ccc(S(=O)(=O)N2CCC(OCC(=O)NCCC3CCC(C(c4ccc(Cl)cc4)N(C)C)CC3)C2)cc1OC (centres unmarked) [Example 338]
μ (binding on the μ opioid receptor, % inhibition) (human μ opiate receptor): 69%
5-HT (inhibition of reuptake of serotonin, % inhibition) [1]: 86%

COc1ccc(S(=O)(=O)N2CCCCC2COCC(=O)NCC2CCC(C(c3ccc(F)cc3)N(C)C)CC2)cc1 (centres unmarked) [Example 345]
μ (binding on the μ opioid receptor, % inhibition) (human μ opiate receptor): 64%
5-HT (inhibition of reuptake of serotonin, % inhibition) [1]: 92%

CN(C)C(c1cccc(F)c1)C1CCC(CNC(=O)COCCC2CCN(S(=O)(=O)c3ccccc3)CC2)CC1 (centres unmarked) [Example 333]
μ (binding on the μ opioid receptor, % inhibition) (human μ opiate receptor): 65%
5-HT (inhibition of reuptake of serotonin, % inhibition) [1]: 84%

CN(C)C(c1cccc(F)c1)C1CCC(CNC(=O)COC2CCCN(S(=O)(=O)c3ccccc3)C2)CC1 (centres unmarked) [Example 309]
μ (binding on the μ opioid receptor, % inhibition) (human μ opiate receptor): 69%
5-HT (inhibition of reuptake of serotonin, % inhibition) [1]: 94%

CN(C)C(c1cccc(F)c1)C1CCC(CCNC(=O)COCCN(Cc2ccccc2)S(=O)(=O)c2ccccc2)CC1 (centres unmarked) [Example 278]
μ (binding on the μ opioid receptor, % inhibition) (human μ opiate receptor): 77%
5-HT (inhibition of reuptake of serotonin, % inhibition) [1]: 98%

CN(C)C(c1cccs1)C1CCC(NC(=O)COCCN(C)S(=O)(=O)c2ccc(OC(F)(F)F)cc2)CC1 (centres unmarked) [Example 282]
μ (binding on the μ opioid receptor, % inhibition) (human μ opiate receptor): 74%
5-HT (inhibition of reuptake of serotonin, % inhibition) [1]: 52%

COc1ccc(S(=O)(=O)N2CCC(OCC(=O)NC3CCC(C(c4cccc(F)c4)N(C)C)CC3)C2)cc1OC (centres unmarked) [Example 323]
μ (binding on the μ opioid receptor, % inhibition) (human μ opiate receptor): 67%
5-HT (inhibition of reuptake of serotonin, % inhibition) [1]: 91%
